Measurements from a compilation of properties of binary mixtures (doi:10.1021/je300132e).

Assay: xn = mol fraction of the nth substance listed
Details: 101 kPa

CC(=O)[O-].CC[n+]1ccn(C)c1 + O
viscosity [mPa·s]
Details | x2 = 0.347 | x2 = 0.517 | x2 = 0.578 | x2 = 0.627 | x2 = 0.705
293.1 K | 93.7 | – | – | 42.8 | –
313.1 K | 35.2 | 24.4 | 21.4 | 18.2 | 14
333.1 K | 16.9 | – | – | 9.39 | 7.36
353.1 K | 9.51 | 7.19 | 6.46 | 5.63 | 4.38

CC[NH+](C)CC.CS(=O)(=O)[O-] + O
viscosity [mPa·s]
Details | x2 = 0.372 | x2 = 0.449 | x2 = 0.507 | x2 = 0.624 | x2 = 0.707
293.1 K | 65.26 | 49.94 | 41.92 | 27.93 | –
313.1 K | – | 21.55 | 18.69 | 13.36 | 10.09
333.1 K | – | 11.37 | – | 7.34 | 5.72
353.1 K | 8.2 | – | 6.08 | – | 3.6
